Measurements reported in patent US20220340547A1, “INDOLE DERIVATIVE-CONTAINING INHIBITOR, PREPARATION METHOD THEREFOR AND APPLICATION THEREOF” (Shanghi Hansoh Biosoh Biomedical Co., Ltd., priority 2019, published 2022).

Experiments:
[1] = target: EGFR WT (Homo sapiens, UniProt P00533); assay: TR-FRET inhibition of kinase activity of wild type EGFR; format: biochemical
From the text: Determination of the Inhibitory Effect of the Compound of the Present Invention on the Kinase Activity of Wild Type EGFR
Experimental objective: The objective of this test example is to determine the inhibitory effect of the compound on the kinase activity of wild type EGFR.
(§1) Experimental process: The experiment applied the TR-FRET (time-resolved fluorescence resonance energy transfer) method to study the inhibitory effect of the compound on the kinase activity of wild type EGFR. The experiment was carried out in a 384-well plate. Experimental buffer (50 mM HEPES, 1 mM EGTA, 10 mM MgCl2, 2 mM DTT, 0.01% Tween-20) was formulated. The compound was diluted in gradient to different concentrations with the experimental buffer. 2 μL of the solution was added to each well of the 384-well plate. 4 μL of diluted EGFR kinase solution (0.001-0.5 nM) was added, and the plate was incubated at room temperature for 10 minutes. 4 μL of ULight-poly GT/ATP mixed solution was added, and the plate was incubated at room temperature for 30 to 60 minutes. 5 μL of EDTA stop solution and 5 μL of Eu-labeled antibody detection solution were added, and the plate was incubated at room temperature for 1 hour.
(§2) Experimental Data Processing Method:
(§3) The concentration and inhibition rate were fitted to a nonlinear regression curve by Graphpad Prism software to obtain the IC50 value.

[2] = target: EGFR D770_N771insNPG (Homo sapiens, UniProt P00533, INS770NPG); assay: TR-FRET inhibition of kinase activity of EGFR exon 20 insertion mutation; format: biochemical
From the text: Determination of the Inhibitory Effect of the Compound of the Present Invention on the Kinase Activity of EGFR Exon 20 Insertion Mutation
Experimental objective: The objective of this test example is to determine the inhibitory effect of the compound on the kinase activity of EGFR exon 20 insertion mutation.
as §1, with “of EGFR exon 20 insertion mutation.” for “of wild type EGFR.”, “buffer. 2.5” for “buffer. 2”, “plate. 2.5” for “plate. 4”, “minutes. 5” for “minutes. 4”
as §2, §3

[3] = target: Ba/F3 EGFR-D770-N771ins_SVD (Homo sapiens, UniProt P00533, DUP768-770, cells depend on it); assay: Proliferation of Ba/F3 EGFR mutant cell line (CellTiter-Glo); format: cell-based, mouse; settings: 72 h to 144 h, read-out: Ba/F3 EGFR-D770-N771ins_SVD IC50
Protocol: Determination of the Inhibitory Effect of the Compound of the Present Invention on the Proliferation of Ba/F3 EGFR Mutant Cell Line and A431 Cell Line
(§4) Experimental objective: The objective of this test example is to determine the inhibitory effect of the compound on the proliferation of Ba/F3 EGFR mutant cell line and A431 cell line
(§5) Experimental instruments: Microplate reader (BioTek Synergy H1), pipette (Eppendorf & Rainin).
Ba/F3 EGFR mutant cells were cultured, and harvested after reaching a suitable density. The cells were adjusted to an appropriate cell concentration with the complete medium. The cell suspension were spread on a 96-well plate (90 μL per well), and the plate was placed in a 37° C., 5% CO2 incubator overnight to let the cells adhere to the wall. Solutions of the compound at different concentrations were formulated with DMSO and culture medium. Solvent control was set. […] CellTiter-Glo solution was added and mixed well by shaking, and the plate was incubated in the dark for 10 minutes. The values were measured by BioTek Synergy H1 microplate reader.
as §2
(§6) The inhibition rate was calculated using the […] signal value. The concentration and inhibition rate were fitted to a nonlinear regression curve by Graphpad Prism software to obtain the IC50 value.

[4] = system: A431 cell line; assay: Proliferation of A431 cell line (CellTiter-Glo); format: cell-based; settings: Homo sapiens, A-431, 72 h
Protocol: Test Example 3. Determination of the Inhibitory Effect of the Compound of the Present Invention on the Proliferation of Ba/F3 EGFR Mutant Cell Line and A431 Cell Line
as §4, §5
A431 cells were cultured, and harvested after reaching a suitable density. The cells were adjusted to an appropriate cell concentration with the complete medium. The cell suspension were spread on a 96-well plate (90 μL per well), and the plate was placed in a 37° C., 5% CO2 incubator overnight to let the cells adhere to the wall. Solutions of the compound at different concentrations were formulated with DMSO and culture medium. Solvent control was set. The solution of the compound was added to the 96-well plate ([…]), and the plate was incubated in the 37° C., 5% CO2 incubator for 72 h. CellTiter-Glo solution was added and mixed well by shaking, and the plate was incubated in the dark for 10 minutes. The values were measured by BioTek Synergy H1 microplate reader.
as §2, §6

Chain of EGFR WT (P00533 25-1210): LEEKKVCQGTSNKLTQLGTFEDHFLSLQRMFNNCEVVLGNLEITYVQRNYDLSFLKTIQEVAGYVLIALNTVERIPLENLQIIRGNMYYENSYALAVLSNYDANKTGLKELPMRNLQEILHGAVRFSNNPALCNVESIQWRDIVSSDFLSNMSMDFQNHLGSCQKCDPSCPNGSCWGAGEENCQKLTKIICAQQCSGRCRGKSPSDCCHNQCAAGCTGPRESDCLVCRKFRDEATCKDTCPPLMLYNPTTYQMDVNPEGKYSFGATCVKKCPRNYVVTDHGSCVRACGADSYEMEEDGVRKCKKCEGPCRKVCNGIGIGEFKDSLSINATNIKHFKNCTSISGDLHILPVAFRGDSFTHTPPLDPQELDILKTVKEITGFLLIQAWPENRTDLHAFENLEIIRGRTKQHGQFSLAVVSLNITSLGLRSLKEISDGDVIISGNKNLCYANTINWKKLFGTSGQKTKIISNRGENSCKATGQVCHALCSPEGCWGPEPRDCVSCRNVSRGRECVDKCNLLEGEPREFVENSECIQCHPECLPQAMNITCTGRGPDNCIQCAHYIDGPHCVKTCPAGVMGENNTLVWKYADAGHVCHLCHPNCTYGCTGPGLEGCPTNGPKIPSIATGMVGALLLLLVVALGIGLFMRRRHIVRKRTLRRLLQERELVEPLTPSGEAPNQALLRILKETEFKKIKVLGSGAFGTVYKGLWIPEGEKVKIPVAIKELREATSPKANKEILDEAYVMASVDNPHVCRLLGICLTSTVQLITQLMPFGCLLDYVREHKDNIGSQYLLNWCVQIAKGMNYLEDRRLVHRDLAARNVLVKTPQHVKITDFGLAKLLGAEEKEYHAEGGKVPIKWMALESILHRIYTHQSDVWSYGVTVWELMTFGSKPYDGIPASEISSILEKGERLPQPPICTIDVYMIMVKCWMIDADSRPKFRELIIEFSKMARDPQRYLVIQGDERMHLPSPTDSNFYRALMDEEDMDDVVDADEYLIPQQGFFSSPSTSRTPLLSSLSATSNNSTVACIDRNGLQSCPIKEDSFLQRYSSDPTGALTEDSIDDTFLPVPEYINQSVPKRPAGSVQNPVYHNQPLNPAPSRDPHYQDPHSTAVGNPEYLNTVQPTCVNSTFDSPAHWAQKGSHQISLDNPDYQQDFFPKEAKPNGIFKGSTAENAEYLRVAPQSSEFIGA
Chain of EGFR D770_N771insNPG (P00533 with tags, fused parts or gaps INS770NPG limits assumed): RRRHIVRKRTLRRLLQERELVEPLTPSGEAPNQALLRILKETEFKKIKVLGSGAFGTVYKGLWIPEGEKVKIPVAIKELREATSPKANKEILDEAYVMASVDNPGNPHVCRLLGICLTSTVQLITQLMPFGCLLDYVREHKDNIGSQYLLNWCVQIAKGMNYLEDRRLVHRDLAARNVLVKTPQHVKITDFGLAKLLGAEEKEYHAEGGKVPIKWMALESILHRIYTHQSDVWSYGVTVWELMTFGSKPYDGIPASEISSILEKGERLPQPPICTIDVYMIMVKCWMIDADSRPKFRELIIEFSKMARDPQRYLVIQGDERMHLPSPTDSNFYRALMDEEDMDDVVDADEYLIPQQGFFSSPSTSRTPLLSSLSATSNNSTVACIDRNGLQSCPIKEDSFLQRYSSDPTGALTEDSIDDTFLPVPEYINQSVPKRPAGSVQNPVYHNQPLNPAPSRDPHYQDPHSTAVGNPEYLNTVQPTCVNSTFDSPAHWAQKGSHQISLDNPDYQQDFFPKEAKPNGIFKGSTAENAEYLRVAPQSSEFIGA
Chain of Ba/F3 EGFR-D770-N771ins_SVD (P00533 with tags, fused parts or gaps DUP768-770): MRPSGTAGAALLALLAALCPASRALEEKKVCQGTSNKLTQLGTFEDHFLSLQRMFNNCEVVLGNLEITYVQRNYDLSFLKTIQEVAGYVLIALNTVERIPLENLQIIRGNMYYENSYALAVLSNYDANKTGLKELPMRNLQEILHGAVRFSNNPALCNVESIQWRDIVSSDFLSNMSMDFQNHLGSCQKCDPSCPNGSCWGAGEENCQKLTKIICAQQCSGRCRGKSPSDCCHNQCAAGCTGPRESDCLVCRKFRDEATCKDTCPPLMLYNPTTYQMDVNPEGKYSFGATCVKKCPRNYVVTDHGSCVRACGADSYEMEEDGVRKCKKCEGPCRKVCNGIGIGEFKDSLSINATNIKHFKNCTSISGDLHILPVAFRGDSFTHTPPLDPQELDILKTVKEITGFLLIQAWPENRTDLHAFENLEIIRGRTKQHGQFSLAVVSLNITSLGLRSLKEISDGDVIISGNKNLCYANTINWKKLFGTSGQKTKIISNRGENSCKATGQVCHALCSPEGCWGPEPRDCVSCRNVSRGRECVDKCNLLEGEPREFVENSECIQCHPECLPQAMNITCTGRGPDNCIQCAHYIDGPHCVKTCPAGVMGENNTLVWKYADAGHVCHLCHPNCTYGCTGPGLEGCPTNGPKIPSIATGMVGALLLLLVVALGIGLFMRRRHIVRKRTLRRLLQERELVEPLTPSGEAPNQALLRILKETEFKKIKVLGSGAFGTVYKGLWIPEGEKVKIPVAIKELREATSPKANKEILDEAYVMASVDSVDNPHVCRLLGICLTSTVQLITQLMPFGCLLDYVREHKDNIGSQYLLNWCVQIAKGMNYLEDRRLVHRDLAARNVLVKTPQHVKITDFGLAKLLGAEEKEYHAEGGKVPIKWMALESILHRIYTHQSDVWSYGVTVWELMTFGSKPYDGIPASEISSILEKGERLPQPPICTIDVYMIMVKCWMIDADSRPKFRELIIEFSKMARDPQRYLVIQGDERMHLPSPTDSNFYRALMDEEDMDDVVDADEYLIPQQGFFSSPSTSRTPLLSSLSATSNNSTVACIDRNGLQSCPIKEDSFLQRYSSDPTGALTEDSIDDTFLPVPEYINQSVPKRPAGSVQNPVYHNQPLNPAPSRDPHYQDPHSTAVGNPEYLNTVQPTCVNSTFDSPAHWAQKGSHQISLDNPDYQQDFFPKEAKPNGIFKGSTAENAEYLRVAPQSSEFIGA

| Structure (SMILES) | IC50 [1] | other results |
| --- | --- | --- |
| C=CC(=O)Nc1cc(Nc2ncc(C(=O)OC)c(-c3cn(C)c4ccccc34)n2)c(OC)cc1N1C[C@@H]2C[C@H]1CN2C [Example 25, Methyl 2-((5-acrylamido-2-methoxy-4-((1S,4S)-5-methyl-2,5-diazabicyclo[2.2.1]heptan-2-yl)phenyl)amino)-4-(1-methyl-1H-indol-3-yl)pyrimidine-5-carboxylate] | 89.8 nM |  |
| C=CC(=O)Nc1cc(Nc2ncc(C(F)(F)F)c(-c3cn(C4CC4)c4ccccc34)n2)c(OC)cc1N1C[C@H]2CN(C)C[C@H]2C1 [Example 27, N-(5-((4-(1-Cyclopropyl-1H-indol-3-yl)-5-(trifluoromethyl)pyrimidin-2-yl)amino)-4-methoxy-2-((3aR,6aS)-5-methylhexahydropyrrolo[3,4-c]pyrrol-2(1H)-yl)phenyl)acrylamide] | 121 nM |  |
| C=CC(=O)Nc1cc(Nc2ncc(Br)c(-c3cn(C4CC4)c4ccccc34)n2)c(OC)cc1N1C[C@H]2CN(C)C[C@H]2C1 [Example 28, N-(5-((5-Bromo-4-(1-cyclopropyl-1H-indol-3-yl)pyrimidin-2-yl)amino)-4-methoxy-2-((3aR,6aS)-5-methylhexahydropyrrolo[3,4-c]pyrrol-2(1H)-yl)phenyl)acrylamide] | 63.3 nM |  |
| CC#CC(=O)Nc1cc(Nc2ncc(C(F)(F)F)c(-c3cn(C4CC4)c4ccccc34)n2)c(OC)cc1N1C[C@H]2CN(C)C[C@H]2C1 [Example 30, N-(5-((4-(1-Cyclopropyl-1H-indol-3-yl)-5-(trifluoromethyl)pyrimidin-2-yl)amino)-4-methoxy-2-((3aR,6aS)-5-methylhexahydropyrrolo[3,4-c]pyrrol-2(1H)-yl)phenyl)but-2-ynamide] | 453 nM |  |
| C=CC(=O)Nc1cc(Nc2ncc(C(=O)N(C)C)c(-c3cn(C)c4ccccc34)n2)c(OC)cc1N1C[C@H]2CN(C)C[C@H]2C1 [Example 31, 2-((5-Acrylamido-2-methoxy-4-((3aR,6aS)-5-methylhexahydropyrrolo[3,4-c]pyrrol-2(1H)-yl)phenyl)amino)-N,N-dimethyl-4-(1-methyl-1H-indol-3-yl)pyrimidine-5-carboxamide] | > 1000 nM |  |
| C=CC(=O)Nc1cc(Nc2ncc(C(=O)NC3CC3)c(-c3cn(C)c4ccccc34)n2)c(OC)cc1N1C[C@H]2CN(C)C[C@H]2C1 [Example 32, 2-((5-Acrylamido-2-methoxy-4-((3aR,6aS)-5-methylhexahydropyrrolo[3,4-c]pyrrol-2(1H)-yl)phenyl)amino)-N-cyclopropyl-4-(1-methyl-1H-indol-3-yl)pyrimidine-5-carboxamide] | 82.9 nM |  |
| C=CC(=O)Nc1cc(Nc2ncc(C(=O)NCc3ccccc3)c(-c3cn(C)c4ccccc34)n2)c(OC)cc1N(C)CCN(C)C [Example 33, 2-((5-Acrylamido-4-((2-(dimethylamino)ethyl)(methyl)amino)-2-methoxyphenyl)amino)-N-benzyl-4-(1-methyl-1H-indol-3-yl)pyrimidine-5-carboxamide] | 133 nM |  |
| C=CC(=O)Nc1cc(Nc2ncc(-c3cccs3)c(-c3cn(C4CC4)c4ccccc34)n2)c(OC)cc1N1C[C@H]2CN(C)C[C@H]2C1 [Example 46, N-(5-((4-(1-Cyclopropyl-1H-indol-3-yl)-5-(thiophen-2-yl)pyrimidin-2-yl)amino)-4-methoxy-2-((3aR,6aS)-5-methylhexahydropyrrolo[3,4-c]pyrrol-2(1H)-yl)phenyl)acrylamide] | 72.7 nM |  |
| C=C(F)C(=O)Nc1cc(Nc2ncc(-c3ncco3)c(-c3cn(C4CC4)c4ccccc34)n2)c(OC)cc1N1CC(N(C)C)C1 [Example 66, N-(5-((4-(1-Cyclopropyl-1H-indol-3-yl)-5-(oxazol-2-yl)pyrimidin-2-yl)amino)-2-(3-(dimethylamino)azetidin-1-yl)-4-methoxyphenyl)-2-fluoroacrylamide] | 50.8 nM |  |
| C=CC(=O)Nc1cc(Nc2ncc(C#N)c(-c3cn(C4CC4)c4cccc(F)c34)n2)c(OC)cc1N(C)CCN(C)C [Example 120, N-(5-((5-Cyano-4-(1-cyclopropyl-4-fluoro-1H-indol-3-yl)pyrimidin-2-yl)amino)-2-((2-(dimethylamino)ethyl)(methyl)amino)-4-methoxyphenyl)acrylamide] | > 1000 nM |  |
| C=CC(=O)Nc1cc(Nc2ncc(C#N)c(-c3cn(C4CC4)c4cc(OC)c(F)cc34)n2)c(OC)cc1N(C)CCN(C)C [Example 127, N-(5-((5-Cyano-4-(1-cyclopropyl-5-fluoro-6-methoxy-1H-indol-3-yl)pyrimidin-2-yl)amino)-2-((2-(dimethylamino)ethyl)(methyl)amino)-4-methoxyphenyl)acrylamide] |  | IC50 [2]: 0.18 nM; GI50 [3]: 13.4 nM; IC50 [4]: 46.6 nM |
| C=CC(=O)Nc1cc(Nc2ncc(N=S(C)(C)=O)c(-c3cn(C)c4ccccc34)n2)c(OC)cc1N(C)CCN(C)C [Example 136, N-(5-((5-((Dimethyl(oxo)-λ^6-sulfaneylidene)amino)-4-(1-methyl-1H-indol-3-yl)pyrimidin-2-yl)amino)-2-((2-(dimethylamino)ethyl)(methyl)amino)-4-methoxyphenyl)acrylamide] | 250 nM |  |
| C=CC(=O)Nc1cc(Nc2ncc(C#N)c(-c3cn(C4COC4)c4cc(OC)ccc34)n2)c(OC)cc1N(C)CCN(C)C [Example 137, N-(5-((5-Cyano-4-(6-methoxy-1-(oxetan-3-yl)-1H-indol-3-yl)pyrimidin-2-yl)amino)-2-((2-(dimethylamino)ethyl)(methyl)amino)-4-methoxyphenyl)acrylamide] |  | IC50 [2]: 0.16 nM; GI50 [3]: 9.78 nM; IC50 [4]: 18.2 nM |
| C=CC(=O)Nc1cc(Nc2ncc(C#N)c(-n3nc(C)c4ccccc43)n2)c(OC)cc1N(C)CCN(C)C [Example 138, N-(5-((5-Cyano-4-(3-methyl-1H-indazol-1-yl)pyrimidin-2-yl)amino)-2-((2-(dimethylamino)ethyl)(methyl)amino)-4-methoxyphenyl)acrylamide] | > 1000 nM |  |
| C=CC(=O)Nc1cc(Nc2ncc(C(=O)NCc3ccc(F)cc3)c(-c3cn(C)c4ccccc34)n2)c(OC)cc1N(C)CCN(C)C [Example 142, 2-((5-Acrylamido-4-((2-(dimethylamino)ethyl)(methyl)amino)-2-methoxyphenyl)amino)-N-(4-fluorobenzyl)-4-(1-methyl-1H-indol-3-yl)pyrimidine-5-carboxamide] | 133 nM |  |
